Measured values taken from patent US20050192217A1, “Utilization of lipopeptides or lipoproteins in wound treatment and infection prophylaxis” (priority 1998, published 2005).
Where “and” joins values, the source holds several entries; their conditions need not be identical. Equal values may be shown once. Marks after values point to notes of the source that are not given here. Ends that are not written are not given here. * marks the point of attachment. X1 = 2,3‑bispalmitoyloxy‑(2S)‑propyl, CCCCCCCCCCCCCCCC(=O)OC[C@@H](C*)OC(=O)CCCCCCCCCCCCCCC; Propyl(2R-PamO,3-PamO) = CCCCCCCCCCCCCCCC(=O)OC[C@H](C*)OC(=O)CCCCCCCCCCCCCCC

How the values were obtained:
peritoneal leukocytes = assay: Leukocyte inflow into the peritoneal cavity after intraperitoneal injection; type: in vivo, NMRI mice; settings: for PEC: 72 hours
Procedure: The model of inflow of granulocytes and macrophages into the peritoneal cavity of the mouse served as an example of the effectiveness of synthetic lipopeptides or liposomes into which such lipopeptides were incorporated. NMRI-outbred mice were used as experimental animals in order to exclude genetic peculiarities.
At time 0, the following preparations are injected in a sterile manner and in physiological sodium chloride solution into the peritoncal cavity of the experimental animals. Groups of 6 mice were killed after different times, the peritoneal cavity was washed with 1.2 ml of sterile sodium chloride solution and the number of leukocytes and the leukocyte composition was determined in this cell suspension.
Here, as above, groups of 5 NMRI mice were treated with different amounts of R-MALP-2=S-[2,3-Bispalmitoyloxy-(2R)-propyl]cysteinyl-GNNDESNISFKEK (SEQ ID NO:10) or S-MALP-2=S-[2,3-Bispalmitoyloxy-(2S)-propyl]cysteinyl-GNNDESNISFKEK (SEQ ID NO:8)applied intraperitoneally, and after 3 days the total number as well as the composition of the peritoneal leukocytes were determined.

wounds [1] = assay: Wound-healing experiment; type: in vivo, (diabetic) C57BLKS/J-m+/+-Lepr^db mice; settings: 5 μg in 100 μL into the wound each day up to day 4, diabetic mice
Procedure: A wound-healing experiment was carried out as follows. On day 1, (diabetic) C57BLKS/J-m+/+-Lepr^db mice were shaved on the back. On day 0, the animals were anesthetized with ether and the backs were disinfected with Braunoderm. After that, circular regions (1.3 cm diameter) were cut from the skin of the back of each mouse. The edges of the wound were treated with benzoin tincture; then 100 μL of the MALP-2 preparation or of the vehicles were introduced into each wound (10 mice for each treatment group). The wounds were covered with transparent patches of Tegaderm. Each day, up to day 4, 100 μL of the preparation (content 5 μg of MALP-2) or vehicle preparation was injected into the wound bed through the Tegaderm patches or placed in the wound when the bandage was changed. The mice were kept individually in separate cages. In order to avoid infections, baytril (Bayer) was introduced in the drinking water (50 mg/L of enrofloxacin). The bandages were changed once a week under ether anesthesia, and the wound edges were recorded on microscope slides. The areas shown were determined with a standard CCD camera using Scionlmage software. The wounds were checked visually for infections; liquid samples from obviously infected wounds were tested on blood agar plates. Mice with infected wounds were removed from further analyses.

skin of NMRI mice = assay: Intracutaneous application in the skin: leukocyte accumulation and new tissue formation; type: in vivo; settings: 2 μg intracutaneously
Procedure: The following experiment was carried out in order to show the effect of MALP-2 upon intracutaneous application.

abdominal sepsis = assay: Colon ascendens stent peritonitis model, survival after pretreatment; type: in vivo, C57BL/6 mice; settings: 2 μg i.p. two days before the surgical intervention
Procedure: “Colon ascendens stent peritonitis” is a new model for abdominal sepsis, which may follow surgical intervention [Zantl et al., Infekt. Immun., 66:2300-2309 (1998)]. The following experiments were carried out in order to evaluate the ability of MALP-2 to increase the survival rate in this model. Groups of 12 to 18 C57BL/6 mice were injected intraperitoneally with 2 μg of S-MALP-2 in 200 μL of physiological sodium chloride solution or with the same volume of physiological sodium chloride solution either 2 or 4 days before surgical intervention. The surgical intervention was carried out under ether anesthesia. The abdomen was disinfected with 70% ethanol and then opened by section in the middle line (1 cm). A venous catheter (16 gauge) was inserted into the lumen of the […] colon and secured with two stitches using Ethilon thread (7/0). Then the inner needle of the stent was removed, the catheter was shortened to a length of a few millimeters and a small drop of feces was pressed out from the catheter. The peritoneal cavity was rinsed with 0.5 Ml of sodium chloride solution before closing the abdomen. Among the mice with the control, sodium chloride solution (18 per group), none lived longer than 90 h. […]

wounds [2] = assay: Cell colonization and proliferation (nucleic acids) in treated wounds; type: in vivo, C57BLKS/J-m+/+Lepr^db mice (diabetic); settings: diabetic mice, after 10 days
Procedure: 2. Cell colonization and proliferation were measured in the skin section (0.8 cm diameter) of wounds which were treated with various amounts of MALP-2. For this experiment, (C57BLKS/J-m+/+Lepr^db mice (diabetic) were shaved on the back and hair was removed with Veet. The animals were anesthetized with metofane and their backs were disinfected with Braunol. Then circular skin segments (0.8 cm diameter) were taken from the back of each mouse. The wounds were covered with transparent hydrofilm (Hartmann, Germany); MALP-2 or other vehicles were injected into the wound bed through the film in a volume of 50 μL. After 10 days, the animals were killed; the thin layer of cells, which closes the wound, was sectioned ([…]). The punched samples were hydrolyzed and the nucleic acids determined as before. […] At this dose, 349±24 μg of nucleic acid per biopsy sample were found in the animals treated with MALP-2 while the value was 142±22 μg in the comparison samples (4 animals per group; p<0.0001).

skin sections = assay: Infiltration of cells and proliferation by nucleic acids in skin sections after intracutaneous injection; type: in vivo, C57BLKS/J mice
Procedure: 1. Determination of infiltration of cells and proliferation by measurement of nucleic acids in skin sections after intracutaneous (ic) injection of various MALP-2 doses. On day 1, the back of C57BLKS/J mice was shaved and hair was removed with Veet. On day 0, the animals were anesthetized with metofane; various doses of MALP-2, dissolved in 30 percent 2-propanol, were injected in volumes of up to 10 μL onto the back (ic). Corresponding volumes of the vehicle without MALP-2 were injected onto the back of the same mice at another location. The animals were killed 10 days later, and punched skin sections (diameter 0.8 cm) were taken from the MALP-2 injection sites and from the control injection sites. The skin biopsies were defatted by extraction with methanol, methanol/chloroform (1+1) and chloroform for 15 minutes and were hydrolyzed in 10 N Hcl overnight at 110° C. The samples were dried, taken up in water and clarified by filtration through a sterile filter (0.2 μm); the nucleic acids were determined by measuring the absorption at 260 nm. […] At this dose, the nucleic acid content increased at the MALP-2 injection site by 97±43% in comparison to the corresponding control biopsy (4 animals per group).

Substance: S-[2,3-Bispalmitoyloxy-(2R)-propyl]cysteinyl-GNNDESNISFKEK (C(Propyl(2R-PamO,3-PamO))GNNDESNISFKEK) [R-MALP-2, reference compound]
- PEC (peritoneal leukocytes; 10 μg i.p., group mean φ of 5): 8.64 ± 3 ×10^6
- PEC (peritoneal leukocytes; 10 μg i.p., individual animals A-E): 11.1 ×10^6 and 4.05 ×10^6 and 11.4 ×10^6 and 7.65 ×10^6 and 9 ×10^6

Substance: S-[2,3-Bispalmitoyloxy-(2S)-propyl]cysteinyl-GNNDESNISFKEK (C(X1)GNNDESNISFKEK) [S-MALP-2]
- wound healing (wound area, FIG. 7) (wounds [1]): significant acceleration of wound healing
- PEC (peritoneal leukocytes; 1 μg i.p., group mean φ of 5): 10.2 ± 2.2^a ×10^6
- PEC (peritoneal leukocytes; 1 μg i.p., individual animals A-E): 9.1 ×10^6 and 10.8 ×10^6 and 9.35 ×10^6 and 13.7 ×10^6 and 7.9 ×10^6
- PEC (peritoneal leukocytes; 5 μg i.p., group mean φ of 5): 14.5 ± 1.9^a,b ×10^6
- PEC (peritoneal leukocytes; 5 μg i.p., individual animals A-E): 14.4 ×10^6 and 15.2 ×10^6 and 17.3 ×10^6 and 13.1 ×10^6 and 12.5 ×10^6
- in vivo effect on peritoneal leukocytes, S-MALP-2 compared with R-MALP-2 (peritoneal leukocytes; i.p., after 3 days, groups of 5 NMRI mice): clearly more effective
- accumulation of leukocytes at the injection site (skin of NMRI mice; after 3 days): a clear accumulation of leukocytes is observed
- formation of new tissue and vessels (skin of NMRI mice; after 6 days): new tissue and vessels are formed
- animals surviving for 150 h or longer (abdominal sepsis): 4 out of 12

Substance: S-[2,3-bispalmitoyloxy-(2RS)-propyl]cysteinyl-GNNDESNISFKEK [MALP-2]
- nucleic acid per biopsy sample (wounds [2]; 5 μg per wound, 4 animals per group): 349 ± 24 µg
- optimal dose per wound (wounds [2]; injected into the wound bed): 5 µg
- increase of nucleic acid content at the injection site in comparison to the control biopsy (skin sections; 5 μg per injection site ic, 10 days, 4 animals per group): 97±43%
- optimal dose per injection site (skin sections; intracutaneous injection, skin biopsy 10 days later): 5 µg
- Peritoneal cells (peritoneal leukocytes; 9 μg i.p., after 72 hours, groups of 6 animals, mean): 11.2 ± 3.1^b ×10^6
